According to US11925643B2, “Toll-like receptor 4 (TLR4) inhibitors and use thereof” (MOR RESEARCH APPLICATIONS LTD., priority 2018, dated 2024):
“Also recorded” adds a separate entry of the source. Residues, ends and D or L forms follow the SMILES beside them.

Key:
C57BL mice [1] = experiment: Survival after ischemia induction (MI mice model); assay type: in vivo; settings: 0.3 mg/kg 1 hour after ischemia induction; 7 days; 12 mice
Method: (§1) Mice were anesthetized (with a mixture of 100 mg/kg ketamine and 10 mg/kg xylazine), intubated and ventilated with air until spontaneous breathing commenced. The left anterior descending artery (LAD) was ligated with one single stitch, forming an ischemia that can be observed almost immediately. By closing the LAD, no further blood flow is permitted in that area, while the surrounding myocardial tissue is almost not affected. This surgical procedure imitates the pathobiological and pathophysiological aspects occurring in infarction-related myocardial ischemia.
Real time reverse transcriptase PCR (RT-qPCR) was conducted to identify the effect of a disclosed decoy peptide on TLR-mediated induction of the inflammatory cytokine TNF-α. The effect of an exemplary decoy peptide PM6 (0.3 mg/kg; administered 1 hour after MI induction) on TNF-α mRNA expression in mice myocardium was assessed 24 h and 7 days after ischemia induction.
On the other hand, 5 out of 12 untreated mice died, which accounts for a survival rate of 58% after ischemia for the untreated mice.

C57BL mice [2] = experiment: Serum markers CK, LDH, troponin and GOT after LAD ligation; assay type: in vivo
Method: Male wild type mice (C57BL) were purchased from Harlan™ (Jerusalem, Israel). Mice were grown in a temperature-controlled atmosphere, 12/12 hours light/dark cycle and given standard food and tap water. The experiments were performed on 2-3-month-old male mice. All experiments were carried out in accordance with the guidelines of the Animal Care and Use Committee of Tel Aviv University with the Guide for the Care and Use of Laboratory Animals published by the US National Institutes of Health.
as §1
Blood was drawn out from the mice and immediately centrifuged at […] for 10 minutes to isolate the serum, which was obtained from the top portion of the test tube. The serum was mixed with double distilled water (DDW) in a ratio of 1:10 and was ready for assaying. Various markers were observed (CK, LDH & troponin) to determine cardiac damage in the serum.
A dose response experiment was conducted using the experiment design of the pilot experiment. PM6 was given to mice in three doses: 0.05, 0.30 and 1.00 mg/kg. Blood levels of four serum markers were assessed. The levels of three markers CK, LDH and troponin were correlated with MI severity. Troponin is a complex of three regulatory proteins that is integral to muscle contraction in skeletal muscle and cardiac muscle, and serves as a highly specific marker for myocardial infarction or heart muscle cell death. The level of the fourth marker GOT was used as an indicator for liver functions.

TLR4 = target: T1, TLR4 (Homo sapiens, UniProt O00206); experiment: FACS analysis of TLR4 expressed by macrophages exposed to LPS; assay type: cell-based; settings: 10 μM
T1 construct: FACS analysis to test the expression of TLR4 protein by macrophages under LPS treatment; endogenous in cells; host or cells: human peripheral-blood monocytes differentiated into macrophages with M-CSF
Method: Flow cytometry is an analytical cell-biology technique that utilizes light to count and profile cells in a heterogenous fluid mixture. Flow cytometry analysis was used to evaluate binding of antibodies to TLR4 presenting cells. In this assay, an anti-TLR4 antibody was added to a monocytes suspension and cells which bound the antibody were visualized by a fluorescently labeled secondary antibody that bound to the anti-TLR4 antibody (Ab). Accordingly, samples were first “labeled” with the anti-TLR4 antibody, then incubated with Fluor® 488 conjugated to a secondary Ab for TLR4 (CD284) positive cells visualization.
In order to confirm the specificity of binding, and further in order to correct for non-specific or background staining, isotypes control mouse IgGs were added to cell suspensions at the same concentration as the anti-TLR4 Abs. To deduct the non-specific or background staining from the positive staining due to direct Ab binding to the antigen, the level of background staining was assessed by the use of the same fluorochrome as that used for staining the anti-TLR4 Ab.
Peripheral blood (30 ml) was obtained for the isolation of monocytes. Monocytes were purified by density gradient centrifugation as described above, and/or by adherence to plastic in RPMI 1640 medium supplemented with 10% fetal bovine serum (FBS) and antibiotics. Peripheral blood mononuclear cells (PBMCs) (10^6 cells/ml) were first seeded into 24-well plates (0.5 ml per well), after 2 hours, non-adherent cells were removed by several washes with warm PBS.
Monocytes freshly isolated either by density gradient centrifugation by adherence differentiated into macrophages in complete RPMI 1640 medium supplemented with human recombinant macrophage colony stimulating factor (100 ng/ml) for 6 days. To confirm macrophage cell lineage, direct immunostaining was performed with an antibody directed against CD11b/mac1 (Biolegend® Inc., San Diego, Calif., USA). Eighty percent (80%) of positive staining was observed by flow cytometry analysis. The proportion of TLR4 in this separated cell fraction was examined by FACS analysis using, as isotype control, mouse IgG2a IsoControl (eBioscience™ #53-4724-80), and mouse anti-human CD284 Alexa Fluor® 488 Clone FITA125 secondary Ab (Isotype IgG2a. eBioscience™ #53-9917-41), which recognizes the human TLR4 (also known as CD284) cell surface antigen. Cells were analyzed in a BC Gallios Flow Cytometer (Beckman Coulter, Indianapolis Ind., USA) and were initially gated on the basis of forward and side scatter characteristics. Kaluza Software was used to analyze the results. Results are expressed as mean fluorescence intensity (MFI) and also as normalized to control. […]

[3] = 0.3 mg/kg IV 1 hour before LAD ligation

T1 sequence (O00206 24-839): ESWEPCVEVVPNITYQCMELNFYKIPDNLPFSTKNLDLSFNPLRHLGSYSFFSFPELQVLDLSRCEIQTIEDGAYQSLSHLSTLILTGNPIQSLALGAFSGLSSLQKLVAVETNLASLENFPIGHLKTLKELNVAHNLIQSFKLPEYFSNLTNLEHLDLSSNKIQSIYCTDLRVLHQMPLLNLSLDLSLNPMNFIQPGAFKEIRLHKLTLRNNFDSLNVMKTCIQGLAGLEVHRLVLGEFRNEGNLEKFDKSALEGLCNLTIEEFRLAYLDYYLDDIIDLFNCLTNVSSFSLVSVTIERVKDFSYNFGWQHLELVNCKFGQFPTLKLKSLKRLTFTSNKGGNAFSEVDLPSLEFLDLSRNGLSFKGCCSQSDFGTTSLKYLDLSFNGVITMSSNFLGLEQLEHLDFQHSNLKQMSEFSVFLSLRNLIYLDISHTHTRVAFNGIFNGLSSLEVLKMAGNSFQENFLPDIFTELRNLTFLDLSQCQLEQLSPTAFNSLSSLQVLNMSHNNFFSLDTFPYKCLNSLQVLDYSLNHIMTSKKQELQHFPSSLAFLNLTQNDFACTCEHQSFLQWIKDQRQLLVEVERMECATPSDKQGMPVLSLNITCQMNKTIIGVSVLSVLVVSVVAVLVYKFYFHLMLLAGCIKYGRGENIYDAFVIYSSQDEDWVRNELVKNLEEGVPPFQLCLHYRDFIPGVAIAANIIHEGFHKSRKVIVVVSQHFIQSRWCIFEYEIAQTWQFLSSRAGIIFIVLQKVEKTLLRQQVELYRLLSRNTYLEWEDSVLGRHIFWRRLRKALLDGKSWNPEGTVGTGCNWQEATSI

Compound | survival rate (C57BL mice [1]) [%] | serum CK level (C57BL mice [2]; [3]) | serum LDH level (C57BL mice [2]; [3]) | serum troponin level (C57BL mice [2]; [3]) | GOT level (liver function) (C57BL mice [2]; 0.05, 0.30 and 1.00 mg/kg IV 1 hour before LAD ligation) | TLR4 expression level (TLR4; 30 min before LPS (100 ng/ml or 20 μg/ml), 4 hours) | lowering the expression of TLR4 in the presence of LPS, compared with SEQ ID NO: 25 (TLR4; low and high LPS)
CCCCCCCCNc1nc(=O)n(Cc2ccccc2)cc1C [PM6, 1-benzyl-5-methyl-4-(octylamino)pyrimidin-2(1H)-one] | 100 | significantly reduced; also recorded: significant reduction | significantly reduced; also recorded: significant reduction | significantly reduced; also recorded: significant reduction | did not affect | – | –
CC[C@H](C)[C@H](NC(C)=O)C(=O)N[C@H](C(=O)N[C@@H](Cc1ccccc1)C(=O)N[C@@H](C)C(N)=O)C(C)C [SEQ ID NO:1, (2S,3S)-2-acetamido-N-((S)-1-(((S)-1-(((S)-1-amino-1-oxopropan-2-yl)amino)-1-oxo-3-phenylpropan-2-yl)amino)-3-methyl-1-oxobutan-2-yl)-3-methylpentanamide] (Ac-IVFA-NH2) | – | – | – | – | – | toward baseline levels | more effective
